One experiment deals with LGTV. The arrangement: species or system Langat virus.
The test system of experiment [1] is Langat virus strain TP21 (LGTV). The experiment is classed as cell-based. As to conditions: n = 4.
For a further experiment, the system named is SARS-CoV-2. Kind of experiment: SARS-CoV-2 virus inhibition (plaque) assay. The experiment is classed as cell-based, Severe Acute Respiratory Syndrome Coronavirus 2. Particulars: read-out: concentration for 50% reduction of PFU / viral load (SARS-CoV-2).
The test system of a further experiment is IAV (H1N1/CApdm09). Kind of experiment: Influenza A virus inhibition (plaque) assay. The experiment is classed as cell-based. As to conditions: read-out: concentration required to suppress IAV (by 50%).

For the sequence “DLTTKLWSSWGYYLGKKARWNLKHPYVQF [D-PLNC8 α]”, the “permeabilization of LGTV particles (Sytox Green staining), single peptide” value in the experiment with LGTV was “not as efficient”.

In the case of “LLGDFFRKSKEKIGKEFKRIVQRIKDFLRNLVPRTES [LL-37, human cathelicidin-derived antimicrobial peptide used as a control, reference compound]”, the “effect on virus infectivity (LGTV viral load)” value in experiment [1] is listed as “did not affect virus infectivity”.

Regarding “SVPTSVYTLGIKILWSAYKHRKTIEKSFNKGFYH [D-PLNC8 β]”, in the experiment on LGTV, the “permeabilization of LGTV particles (Sytox Green staining), single peptide” value is listed as “permeabilized”. For the same sequence, the IC50 in the experiment with SARS-CoV-2 and in the experiment with IAV (H1N1/CApdm09) was approximately 500 nM each time.

The values above are taken from PMC9710782, “Plantaricin NC8 αβ rapidly and efficiently inhibits flaviviruses and SARS-CoV-2 by disrupting their envelopes” (PLOS ONE, 2022).
